Laboratory results published in the supplement of paper PMC10307832.

Tests used:
Experiment in all cases: relative viability (nuclei count vs DMSO), 5 days (fraction); higher = more cells survive
[1] = compound: CC1=C(C(=NN1)C)CC2=C(C3=C(S2)N(C(=O)N(C3=O)C)CC(C)C)C(=O)N4C[C@@H](CO4)O + Nc1nc2[nH]cc(CCc3ccc(C(=O)N[C@@H](CCC(=O)O)C(=O)O)cc3)c2c(=O)[nH]1 [Pemetrexed] (partner 0.2 µM)
How it was run: (§1)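 Lung cancer cell lines, seeded in 1536-well plates, were treated the following day by pin tool with a single drug or with five library-drug doses (not always all listed) in √10 steps on top of a fixed anchor-drug dose. Cells were fixed and nuclei stained in one step after 5 days, and nuclei were counted. Relative viability is the nuclei count for treated wells divided by that for vehicle wells, reported as medians of duplicate plates.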

IDH-C35 + Vorinostat = compound: Cc1ccccc1C(C(=O)NC1CCCCC1)N(C(=O)Cn1ccnc1C)c1cccc(F)c1 [IDH-C35] + O=C(CCCCCCC(=O)Nc1ccccc1)NO [Vorinostat] (partner 1 µM)
How it was run: as §1

IDH-C35 + Pictilisib = compound: Cc1ccccc1C(C(=O)NC1CCCCC1)N(C(=O)Cn1ccnc1C)c1cccc(F)c1 [IDH-C35] + CS(=O)(=O)N1CCN(Cc2cc3nc(-c4cccc5[nH]ncc45)nc(N4CCOCC4)c3s2)CC1 [Pictilisib] (partner 1 µM)
How it was run: as §1

[2] = compound: CC1=C(C(=NN1)C)CC2=C(C3=C(S2)N(C(=O)N(C3=O)C)CC(C)C)C(=O)N4C[C@@H](CO4)O + O=C(c1cc(Cc2n[nH]c(=O)c3ccccc23)ccc1F)N1CCN(C(=O)C2CC2)CC1 [Olaparib] (partner 8 µM)
How it was run: as §1

| Cell Line | relative viability ([1]; first compound 0.0025 µM) | relative viability ([1]; first compound 0.007906 µM) | relative viability ([1]; first compound 0.025 µM) | relative viability ([1]; first compound 0.07906 µM) | relative viability ([1]; first compound 0.25 µM) | relative viability (IDH-C35 + Vorinostat; first compound 0.08 µM) | relative viability (IDH-C35 + Vorinostat; first compound 0.253 µM) | relative viability (IDH-C35 + Vorinostat; first compound 0.8 µM) | relative viability (IDH-C35 + Vorinostat; first compound 2.53 µM) | relative viability (IDH-C35 + Vorinostat; first compound 8 µM) | relative viability (IDH-C35 + Pictilisib; first compound 0.08 µM) | relative viability (IDH-C35 + Pictilisib; first compound 0.253 µM) | relative viability (IDH-C35 + Pictilisib; first compound 0.8 µM) | relative viability (IDH-C35 + Pictilisib; first compound 2.53 µM) | relative viability (IDH-C35 + Pictilisib; first compound 8 µM) | relative viability ([2]; first compound 0.0025 µM) | relative viability ([2]; first compound 0.007906 µM) | relative viability ([2]; first compound 0.025 µM) | relative viability ([2]; first compound 0.07906 µM) | relative viability ([2]; first compound 0.25 µM) |
| --- | --- | --- | --- | --- | --- | --- | --- | --- | --- | --- | --- | --- | --- | --- | --- | --- | --- | --- | --- | --- |
| NCI-H2009 | 1.09 | 1.03 | 0.955 | 1.03 | 1.06 | 0.762 | 0.688 | 0.758 | 0.69 | 0.681 | 0.903 | 0.75 | 0.907 | 0.709 | 0.8 | 0.704 | 0.682 | 0.649 | 0.711 | 0.721 |
| NCI-H2023 | 0.249 | 0.258 | 0.224 | 0.233 | 0.225 | 0.667 | 0.799 | 0.68 | 0.634 | 0.636 | 0.285 | 0.22 | 0.245 | 0.229 | 0.233 | 0.47 | 0.496 | 0.449 | 0.435 | 0.51 |
| NCI-H2085 | 0.926 | 0.93 | 0.73 | 0.987 | 0.476 | 0.88 | 0.784 | 0.81 | 0.86 | 0.719 | 0.489 | 0.523 | 0.451 | 0.49 | 0.442 | 0.736 | 0.686 | 0.704 | 0.72 | 0.752 |
| NCI-H2087 | 0.575 | 0.675 | 0.629 | 0.587 | 0.695 | 0.821 | 0.715 | 0.74 | 0.624 | 0.633 | 1.15 | 0.901 | 0.83 | 0.984 | 0.886 | 0.67 | 0.661 | 0.598 | 0.727 | 0.701 |
| NCI-H2126 | 0.766 | 0.737 | 0.63 | 0.6 | 0.739 | 0.683 | 0.806 | 0.698 | 0.5 | 0.61 | 0.494 | 0.508 | 0.48 | 0.507 | 0.472 | 0.962 | 0.951 | 0.874 | 0.865 | 0.914 |
| NCI-H2170 | 0.261 | 0.274 | 0.252 | 0.248 | 0.266 | 0.796 | 0.809 | 0.804 | 0.844 | 0.85 | 0.33 | 0.378 | 0.332 | 0.342 | 0.336 | 0.582 | 0.636 | 0.676 | 0.597 | 0.666 |
| NCI-H2228 | 0.317 | 0.342 | 0.339 | 0.322 | 0.324 | 0.64 | 0.632 | 0.563 | 0.754 | 0.648 | 0.328 | 0.296 | 0.421 | 0.486 | 0.457 | 0.609 | 0.745 | 0.786 | 0.786 | 0.993 |
| NCI-H2347 | 0.434 | 0.438 | 0.41 | 0.378 | 0.383 | 0.4 | 0.682 | 0.531 | 0.59 | 0.656 | 0.627 | 0.603 | 0.813 | 0.788 | 0.899 | 0.574 | 0.624 | 0.468 | 0.508 | 0.587 |
